Laboratory results published in US20220280541A1, “METHOD FOR IDENTIFYING CARBOHYDRATE DRUG-SENSITIVE PATIENT IN PATIENTS HAVING ALZHEIMER'S DISEASE” (SHANGHAI GREEN VALLEY PHARMACEUTICAL CO., LTD., priority 2019, published 2022).
Entries after “also recorded” stand apart in the source; their conditions may differ.

Columns and labels:
naive CD4^+ T cells = assay: In vitro differentiation and proliferation induced by phenylalanine and isoleucine; assay type: cell-based, mouse; settings: amino acid added directly to naive CD4^+ T cell culture
Experimental: In Vitro differentiation and proliferation induced by phenylalanine and isoleucine. Naive CD4^+ T cells were separated from the splenocytes of 8-month-old C57BL/6 female mice using the Naive CD4^+ T cell Isolation Kit (Stem Cell, #19765), and the cells were stained with CellTrace (Thermo Fisher, #C34557). A total of 1×10^5 cells/well in 0.2 mL of RPMI-1640 medium were plated in 96-well plates, and the culture medium was supplemented with cytokines or blocking antibodies. Th0: 10 ng/mL mIL-2; Th1:10 ng/mL mIL-2, 5000 ng/mL 11B11. Phenylalanine (final concentration, 2 mmol/L), isoleucine (final concentration, 2 mmol/L) and OM1 (final concentration, 100 μg/mL) were added into the indicated wells, respectively. After incubation at 37° C. in 5% CO2 for 5 days, cells were acquired on a BD Fortessa cytometer, and data were analyzed using FlowJo software.

Th1 cells [1] = assay: Intraperitoneal injection of phenylalanine and isoleucine, blood Th1 cells; assay type: in vivo, mouse; settings: WT (C57) mice, intraperitoneal injection 50 mg/kg for 4 days
Experimental: Animals. Tg mice and co-housed WT mice (corresponding WT mice generated by mating Tg mice and C57 mice) were housed in the same cage after birth. WT mice (C57) were housed in separate cages to avoid cross-transfer of microbiota. All mice were kept in a 23° C. room with a 12-hour (h) light-dark cycle. Mice were randomly assigned to different groups before treatment. For time course analysis of Tg mice, male and female Tg mice were sacrificed at 2, 3, 5, 7 and 9 months of age. The mouse brain was collected and stained for immune cell analysis and cytokine analysis. Before the mice were sacrificed, feces were collected for gut microbiota analysis. For OM1 treatment, at the age of 6.5 months, based on 450 mg b.i.d. (twice a day) in the phase III trial, Tg mice were treated with 100 mg/kg OM1 by oral administration once a day for one month. Behavioral tests were performed to monitor cognitive activity after the last treatment. […] All mouse movements that occur in PhenoTyper (HomeCage) are recorded by a computerized tracking system, which calculates the time and number of entrances required to reach 80% of the performance standard (Noldus, Ethovision). […]
Flow cytometry sample preparation and analysis. […] All samples were counted and adjusted to a density of 2-3×10^6/100 μL, labeled with a Live/Dead kit for 30 min, and then centrifuged at 500×g for 3 min at 4° C. […]

Th1 cells [2] = assay: Flow cytometry of brain Th1 cells in 5XFAD (Tg) mice; assay type: in vivo, mouse; settings: 6-month-old 5XFAD mice, 50 mg/kg intraperitoneal daily for one month, versus vehicle
Experimental: Animals. Tg mice and co-housed WT mice (corresponding WT mice generated by mating Tg mice and C57 mice) were housed in the same cage after birth. […] All mice were kept in a 23° C. room with a 12-hour (h) light-dark cycle. Mice were randomly assigned to different groups before treatment. For time course analysis of Tg mice, male and female Tg mice were sacrificed at 2, 3, 5, 7 and 9 months of age. The mouse brain was collected and stained for immune cell analysis and cytokine analysis. […] For OM1 treatment, at the age of 6.5 months, based on 450 mg b.i.d. (twice a day) in the phase III trial, Tg mice were treated with 100 mg/kg OM1 by oral administration once a day for one month. […] The brains and feces of the mice were then used for different analyses.
Flow cytometry sample preparation and analysis. Mice were anesthetized, blood samples were collected into EDTA-containing tubes, and red blood cells were removed using 1×red blood lysis buffer. Before tissue collection, the brains were perfused with ice-cold PBS to avoid sampling the circulating blood immune cells, and the brains were removed, chopped into pieces and dissected according to the introduction of the Adult Brain Dissociation Kit (Miltenyi, Cat No. 130-107-677) using the gentleMACS dissociator (Miltenyi Biotec). The brain homogenate was filtered through a 70-μm cell strainer and centrifuged at 300×g for 5 min at 4° C. The cell pellet was resuspended in cold PBS buffer and centrifuged again at 300×g for 5 min at 4° C. All samples were counted and adjusted to a density of 2-3×10^6/100 μL, labeled with a Live/Dead kit for 30 min, and then centrifuged at 500×g for 3 min at 4° C. The cells were resuspended in 100 μL PBS buffer, blocked with anti-CD16/32 (Biolegend, Cat No. 101320) for 10 min, and incubated with the antibody according to the manufacturers' protocols at 4° C. for 30 min. […]

SLC7A5 = target: T1, SLC7A5 (Mus musculus, UniProt Q9Z127); assay: Uptake of ^13C-labelled phenylalanine by naive CD4^+ T cells; assay type: cell-based; settings: 0.5 h incubation
T1 construct: endogenous in cells; host or cells: naive CD4+ T cells from splenocytes of C57BL/6 mice (Th0 and IL-12-induced Th1)
Experimental: Uptake of phenylalanine. Naive CD4^+ T cells were separated from the splenocytes of 8-month-old C57BL/6 female mice using the Naive CD4^+ T cell Isolation Kit (Stem Cell, Cat No. 19765) and were induced to Th1 differentiation by 20 ng/mL IL-12. After 3 days, a total of 5×10^5 cells/well Th1 cells and Th0 cells in 0.5 mL of RPMI-1640 medium were plated into 48-well plates. ^13C-labelled phenylalanine and 5 mM amino transporter inhibitor BCH were added into indicated wells. After 0.5 h, cells were collected and washed twice with ice-cold D-PBS. 50 μL deionized water was added and cells were lysed through freezing and thawing twice at −80° C. The cell lysate was centrifuged at 12000×g for 10 min and ^13C-labelled phenylalanine in the supernatant was analyzed by Mass spectrometry.

LAT1 = LAT1 (Homo sapiens, UniProt Q01650); settings: cited from earlier work
Chain of LAT1 (Q01650 whole entry, species assumed): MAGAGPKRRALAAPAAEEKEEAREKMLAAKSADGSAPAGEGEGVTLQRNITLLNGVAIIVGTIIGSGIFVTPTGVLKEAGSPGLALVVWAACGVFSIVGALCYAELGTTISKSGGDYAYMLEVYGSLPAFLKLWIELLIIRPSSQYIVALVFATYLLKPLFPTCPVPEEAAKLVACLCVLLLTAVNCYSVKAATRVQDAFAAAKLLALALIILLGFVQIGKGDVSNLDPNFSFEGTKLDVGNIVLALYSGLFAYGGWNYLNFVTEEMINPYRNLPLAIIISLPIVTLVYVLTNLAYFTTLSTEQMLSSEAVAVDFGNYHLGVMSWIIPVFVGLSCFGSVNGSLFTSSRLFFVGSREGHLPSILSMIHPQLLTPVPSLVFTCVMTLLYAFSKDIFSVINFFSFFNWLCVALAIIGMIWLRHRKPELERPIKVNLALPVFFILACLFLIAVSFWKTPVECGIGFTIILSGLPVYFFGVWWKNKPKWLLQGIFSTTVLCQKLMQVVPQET
Chain of LAT1 (P08195 102-630 partner, species assumed): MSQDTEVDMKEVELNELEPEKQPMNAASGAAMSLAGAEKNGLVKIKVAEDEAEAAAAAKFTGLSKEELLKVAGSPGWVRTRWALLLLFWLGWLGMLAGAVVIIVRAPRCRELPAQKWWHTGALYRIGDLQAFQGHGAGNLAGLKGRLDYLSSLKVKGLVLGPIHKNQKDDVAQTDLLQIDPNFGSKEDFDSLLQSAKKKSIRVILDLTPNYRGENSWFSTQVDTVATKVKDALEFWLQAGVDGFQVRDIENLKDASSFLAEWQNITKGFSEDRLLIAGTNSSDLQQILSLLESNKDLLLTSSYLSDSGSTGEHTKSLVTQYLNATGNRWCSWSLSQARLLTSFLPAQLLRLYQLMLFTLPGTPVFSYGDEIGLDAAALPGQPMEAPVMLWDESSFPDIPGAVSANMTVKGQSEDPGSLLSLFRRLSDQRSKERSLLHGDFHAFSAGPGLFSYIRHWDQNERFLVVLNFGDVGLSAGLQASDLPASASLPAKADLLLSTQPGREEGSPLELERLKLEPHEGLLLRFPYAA

T1 sequence (Q9Z127 whole entry): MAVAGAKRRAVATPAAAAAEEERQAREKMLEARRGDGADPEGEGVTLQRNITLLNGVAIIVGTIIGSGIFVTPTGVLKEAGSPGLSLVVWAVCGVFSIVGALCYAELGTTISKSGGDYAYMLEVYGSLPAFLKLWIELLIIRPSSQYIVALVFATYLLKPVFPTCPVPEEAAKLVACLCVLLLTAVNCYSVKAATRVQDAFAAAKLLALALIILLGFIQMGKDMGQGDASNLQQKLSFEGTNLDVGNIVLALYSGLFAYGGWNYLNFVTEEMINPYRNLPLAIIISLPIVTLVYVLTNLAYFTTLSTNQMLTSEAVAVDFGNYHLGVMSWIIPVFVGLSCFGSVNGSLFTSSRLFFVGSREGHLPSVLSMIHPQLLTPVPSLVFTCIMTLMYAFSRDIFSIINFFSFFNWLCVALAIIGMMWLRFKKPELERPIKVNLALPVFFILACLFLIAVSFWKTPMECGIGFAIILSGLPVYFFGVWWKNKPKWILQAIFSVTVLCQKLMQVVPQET
T1 sequence (P10852 whole entry partner): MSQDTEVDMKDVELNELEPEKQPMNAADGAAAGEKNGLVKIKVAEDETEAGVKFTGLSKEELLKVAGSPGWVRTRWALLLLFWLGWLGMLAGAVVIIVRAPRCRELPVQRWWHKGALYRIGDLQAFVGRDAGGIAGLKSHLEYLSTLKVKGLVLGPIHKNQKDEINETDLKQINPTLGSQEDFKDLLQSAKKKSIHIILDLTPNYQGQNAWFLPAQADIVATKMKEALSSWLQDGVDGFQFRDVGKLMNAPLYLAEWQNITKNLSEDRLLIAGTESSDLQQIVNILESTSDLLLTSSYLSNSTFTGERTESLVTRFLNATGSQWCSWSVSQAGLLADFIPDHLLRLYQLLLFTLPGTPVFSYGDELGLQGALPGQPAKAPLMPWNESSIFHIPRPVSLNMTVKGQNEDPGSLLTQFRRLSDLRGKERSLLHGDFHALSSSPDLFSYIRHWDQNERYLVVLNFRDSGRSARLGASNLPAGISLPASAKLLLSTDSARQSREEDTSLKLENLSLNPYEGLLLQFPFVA

Row | Compound | Th0 cell differentiation into Th1 cells (naive CD4^+ T cells) | Th1 cell proliferation (naive CD4^+ T cells) | Th1 cell count in the blood (Th1 cells [1]) | proportion of pro-inflammatory Th1 cells in the mouse brain (Th1 cells [2]; 50 mg/kg) | proportion of pro-inflammatory Th1 cells in the mouse brain (Th1 cells [2]; listed as JPH 203, 50 mg/kg) | uptake of ^13C-labelled phenylalanine by CD4^+ T cells (SLC7A5) | LAT1 inhibition, selectivity (LAT1)
1 | N[C@@H](Cc1ccccc1)C(=O)O [phenylalanine] | increased | increased | increased significantly | – | – | – | –
2 | CC[C@H](C)[C@H](N)C(=O)O [isoleucine] | increased | increased | increased significantly | – | – | – | –
3 | Nc1cc(COc2c(Cl)cc(C[C@H](N)C(=O)O)cc2Cl)c2oc(-c3ccccc3)nc2c1 [JPH203] | – | – | – | effectively inhibits; also recorded: significantly downregulated | significantly reduces | blocked | selectively inhibits LAT1
